“And” between values parts separate entries of the source, which are not always exact repeats. Identical values can stand only once. Inconclusive results and toxic doses are left out. The calls were made as follows: active = survival T/C of 150% or more; inactive = T/C below 125% in these data.
Tested on: P388 leukemia ip, CD2F1 mice, survival T/C
Test: NCI In Vivo Anticancer Drug Screen. Data for tumor model P388 Leukemia (intraperitoneal) in CD2F1 (CDF1) mice
Conditions: endpoint: median survival time, higher = longer survival
Procedure, shortened: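 Mice carrying the transplanted tumor received test compound or vehicle. Survival was recorded in each group, and the value is the treated-group measurement divided by that of the vehicle-treated control group.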

[1] = dose: 60.0 mg/kg/injection, schedule: Q01DX005 (ip), vehicle: Klucel (hydroxypropylcellulose) (HPC)
[2] = dose: 120.0 mg/kg/injection, schedule: Q01DX005 (ip), vehicle: Klucel (hydroxypropylcellulose) (HPC)
[3] = dose: 240.0 mg/kg/injection, schedule: Q01DX005 (ip), vehicle: Klucel (hydroxypropylcellulose) (HPC)
[4] = dose: 60.0 mg/kg/injection, schedule: Q01DX005 (ip), vehicle: saline with Tween-80
[5] = dose: 120.0 mg/kg/injection, schedule: Q01DX005 (ip), vehicle: saline with Tween-80
[6] = dose: 240.0 mg/kg/injection, schedule: Q01DX005 (ip), vehicle: saline with Tween-80
[7] = dose: 50.0 mg/kg/injection, schedule: Q01DX009 (ip), vehicle: saline with Tween-80
[8] = dose: 100.0 mg/kg/injection, schedule: Q01DX009 (ip), vehicle: saline with Tween-80
[9] = dose: 200.0 mg/kg/injection, schedule: Q01DX009 (ip), vehicle: saline with Tween-80
[10] = dose: 100.0 mg/kg/injection, schedule: Q01DX009 (ip), vehicle: saline
[11] = dose: 200.0 mg/kg/injection, schedule: Q01DX009 (ip), vehicle: saline
[12] = dose: 50.0 mg/kg/injection, schedule: Q01DX001 (ip), vehicle: Klucel (hydroxypropylcellulose) (HPC)
[13] = dose: 100.0 mg/kg/injection, schedule: Q01DX001 (ip), vehicle: Klucel (hydroxypropylcellulose) (HPC)
[14] = dose: 50.0 mg/kg/injection, schedule: Q01DX005 (ip), vehicle: Klucel (hydroxypropylcellulose) (HPC)
[15] = dose: 100.0 mg/kg/injection, schedule: Q01DX005 (ip), vehicle: Klucel (hydroxypropylcellulose) (HPC)
[16] = dose: 200.0 mg/kg/injection, schedule: Q01DX005 (ip), vehicle: Klucel (hydroxypropylcellulose) (HPC)
[17] = dose: 100.0 mg/kg/injection, schedule: Q04DX003 (ip), vehicle: Klucel (hydroxypropylcellulose) (HPC)
[18] = dose: 200.0 mg/kg/injection, schedule: Q04DX003 (ip), vehicle: Klucel (hydroxypropylcellulose) (HPC)

Measured: T/C

O=[N+]([O-])c1ccc(Cl)c(C(Nc2nncs2)Nc2nncs2)c1
inactive: [1] 91 % of control | [2] 104 % of control | [3] 119 % of control

Nc1ncnc2c1c(-c1ccccc1)cn2-c1ccc(Br)cc1
inactive: [4] 108 % of control | [5] 100 % of control | [6] 96 % of control

O=C1c2ccccc2C(O)(C#Cc2ccccc2)c2cc(Cl)ccc21 (configuration not stated)
inactive: [7] 106 % of control | [8] 102 % of control | [9] 90 % of control

[Ni+2].[S-]CC[S-]
inactive: dose: 100.0 mg/kg/injection, schedule: Q04DX003 (ip), vehicle: saline with Tween-80 92 % of control | dose: 200.0 mg/kg/injection, schedule: Q04DX003 (ip), vehicle: saline with Tween-80 108 % of control

Cc1ccc2occ(-c3nnc(NC(=O)c4ccccc4)s3)c(=O)c2c1
inactive: [4] 93 % of control | [5] 86 % of control

CC(C)CC(=O)Nc1ccc(S(=O)(=O)Cl)cc1
inactive: [10] 100 % of control | [11] 90 % of control | dose: 400.0 mg/kg/injection, schedule: Q01DX009 (ip), vehicle: saline 90 % of control

CCOC(=O)C1=C(C)NC(SC)=NC1c1ccccc1 (configuration not stated)
inactive: [1] 99 % of control | [2] 97 % of control | [3] 99 % of control

O=C1c2cc3c(-c4ccccc4)oc(-c4ccccc4)c3cc2C(=O)c2c(O)ccc(O)c21
inactive: dose: 6.25 mg/kg/injection, schedule: Q01DX005 (ip), vehicle: saline with Tween-80 94 % of control | dose: 12.5 mg/kg/injection, schedule: Q01DX005 (ip), vehicle: saline with Tween-80 94 % of control | dose: 25.0 mg/kg/injection, schedule: Q01DX005 (ip), vehicle: saline with Tween-80 94 % of control | dose: 200.0 mg/kg/injection, schedule: Q01DX005 (ip), vehicle: saline with Tween-80 99 % of control

C=CC(=NC(C)(C)C)N(CC)CC
inactive: dose: 15.0 mg/kg/injection, schedule: Q01DX005 (ip), vehicle: saline with Tween-80 103 % of control | dose: 30.0 mg/kg/injection, schedule: Q01DX005 (ip), vehicle: saline with Tween-80 105 % of control | [4] 100 % of control and 106 % of control

NC(=O)C(=O)NNc1cccc(Cl)n1
inactive: [12] 96 % of control | [13] 98 % of control | dose: 200.0 mg/kg/injection, schedule: Q01DX001 (ip), vehicle: Klucel (hydroxypropylcellulose) (HPC) 103 % of control

NC(Cc1csc2ccc(Cl)cc12)C(=O)O (configuration not stated)
inactive: [12] 102 % of control | [13] 100 % of control

O=C(NN=C1CCCCC1)C(=O)Nc1cccc(C(F)(F)F)c1
inactive: [14] 97 % of control | [15] 92 % of control | [16] 88 % of control

CCOC(=O)c1cc(OC(C)=O)c2ccc(OC)c(OC)c2c1
inactive: dose: 6.25 mg/kg/injection, schedule: Q01DX009 (ip), vehicle: distilled water + Tween-80 101 % of control and 105 % of control and 90 % of control | dose: 50.0 mg/kg/injection, schedule: Q01DX009 (ip), vehicle: distilled water + Tween-80 91 % of control and 93 % of control and 97 % of control | dose: 100.0 mg/kg/injection, schedule: Q01DX009 (ip), vehicle: distilled water + Tween-80 91 % of control | dose: 200.0 mg/kg/injection, schedule: Q01DX009 (ip), vehicle: distilled water + Tween-80 93 % of control

OCC1CCN(CCOCc2ccccc2)C1 (configuration not stated)
inactive: [4] 94 % of control | [5] 102 % of control

NNc1ccc(N(CCO)CCO)nn1
inactive: dose: 50.0 mg/kg/injection, schedule: Q01DX009 (ip), vehicle: saline 93 % of control | [10] 100 % of control | [11] 105 % of control

CCOC(=O)Nc1nc2ccc(C(=O)OCC)cc2[nH]1
inactive: dose: 100.0 mg/kg/injection, schedule: Q04DX003 (ip), vehicle: saline 108 % of control | dose: 200.0 mg/kg/injection, schedule: Q04DX003 (ip), vehicle: saline 101 % of control | dose: 400.0 mg/kg/injection, schedule: Q04DX003 (ip), vehicle: saline 108 % of control

O=C(CCCCC(=O)Nc1cc(C2=NCCN2)cc(C2N=CCN2)c1)Nc1cc(C2=NCCN2)cc(C2=NCCN2)c1 (configuration not stated)
inactive: dose: 6.25 mg/kg/injection, schedule: Q01DX005 (ip), vehicle: saline 104 % of control

CN1CCOP(=O)(c2ccccc2)N1 (configuration not stated)
inactive: [4] 99 % of control | [5] 100 % of control | [6] 89 % of control

COc1cc2c(cc1OC)OC(C)(C)C=C2
inactive: dose: 6.87 mg/kg/injection, schedule: Q01DX009 (ip), vehicle: saline with Tween-80 106 % of control | dose: 13.75 mg/kg/injection, schedule: Q01DX009 (ip), vehicle: saline with Tween-80 98 % of control | dose: 27.5 mg/kg/injection, schedule: Q01DX009 (ip), vehicle: saline with Tween-80 108 % of control | dose: 55.0 mg/kg/injection, schedule: Q01DX009 (ip), vehicle: saline with Tween-80 102 % of control

O=C(c1ccc(-c2ccccc2)cc1)C1C(c2ccccc2)N1C1CCCCC1 (configuration not stated)
inactive: dose: 25.0 mg/kg/injection, schedule: Q01DX009 (ip), vehicle: other 88 % of control | dose: 100.0 mg/kg/injection, schedule: Q01DX009 (ip), vehicle: other 91 % of control

COc1cc2c(cc1OC)C(Cc1ccccc1NC(=O)c1ccc(C(=O)Nc3ccccc3CC3c4cc(OC)c(OC)cc4CCN3C)cc1)N(C)CC2 (configuration not stated)
inactive: [4] 89 % of control | [5] 88 % of control | [6] 94 % of control

C/C=C(\C)C(=O)N/N=C/c1cccc(OC)c1O
inactive: [14] 95 % of control | [15] 92 % of control | [16] 96 % of control

C[Si](C)(C)CNC(=O)OCc1ccccc1
inactive: dose: 60.0 mg/kg/injection, schedule: Q01DX005 (ip), vehicle: saline 97 % of control | dose: 120.0 mg/kg/injection, schedule: Q01DX005 (ip), vehicle: saline 95 % of control | dose: 240.0 mg/kg/injection, schedule: Q01DX005 (ip), vehicle: saline 95 % of control

C=CC(=O)OCCCCCCCCCC
inactive: [17] 101 % of control | [18] 109 % of control | dose: 400.0 mg/kg/injection, schedule: Q04DX003 (ip), vehicle: Klucel (hydroxypropylcellulose) (HPC) 108 % of control

Cn1nnnc1-c1ccc(C(=O)O)cc1
inactive: dose: 25.0 mg/kg/injection, schedule: Q01DX005 (ip), vehicle: Klucel (hydroxypropylcellulose) (HPC) 102 % of control | [14] 102 % of control and 91 % of control | [15] 96 % of control | [16] 93 % of control

COC(=O)/C(C#N)=C/N(C)c1ccc([N+](=O)[O-])cc1
inactive: [7] 100 % of control | [8] 104 % of control | [9] 92 % of control

CC1(C(=O)O)CCC2(C)CCC3(C)C(=CC(=O)C4C5(C)CCC(O)C(C)(C)C5CCC43C)C2C1 (configuration not stated)
inactive: dose: 25.0 mg/kg/injection, schedule: Q01DX009 (ip), vehicle: Klucel (hydroxypropylcellulose) (HPC) 95 % of control | dose: 50.0 mg/kg/injection, schedule: Q01DX009 (ip), vehicle: Klucel (hydroxypropylcellulose) (HPC) 100 % of control | dose: 50.0 mg/kg/injection, schedule: Q04DX003 (ip), vehicle: Klucel (hydroxypropylcellulose) (HPC) 105 % of control | dose: 100.0 mg/kg/injection, schedule: Q01DX009 (ip), vehicle: Klucel (hydroxypropylcellulose) (HPC) 94 % of control | [17] 100 % of control | dose: 200.0 mg/kg/injection, schedule: Q01DX009 (ip), vehicle: Klucel (hydroxypropylcellulose) (HPC) 94 % of control | [18] 106 % of control
